Ki data for 1 molecule are collected here from PMC3714338 (Analytical biochemistry, 2013).

Structures are written as SMILES.

For orientation: Ki means a dissociation constant, usually derived from enzyme kinetics or from competition with a known ligand.

For the test, the target named is Mtb APR (adenosine 5′-phosphosulfate reductase; also MtbAPSR) (Mycobacterium tuberculosis, UniProt P9WIK3). Nature of the test: biochemical.
Sequence of Mtb APR (adenosine 5′-phosphosulfate reductase; also MtbAPSR) (P9WIK3 whole entry, looked up): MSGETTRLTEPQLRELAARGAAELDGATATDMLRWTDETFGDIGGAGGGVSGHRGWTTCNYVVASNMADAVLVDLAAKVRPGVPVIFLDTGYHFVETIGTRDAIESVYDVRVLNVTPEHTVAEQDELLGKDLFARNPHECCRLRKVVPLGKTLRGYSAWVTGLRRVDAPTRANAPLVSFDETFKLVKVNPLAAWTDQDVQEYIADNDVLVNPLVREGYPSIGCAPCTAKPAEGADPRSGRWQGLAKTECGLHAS

In turn, `Nc1ncnc2c1ncn2[C@@H]1O[C@H](COP(=O)(O)OP(=O)(O)O)[C@@H](O)[C@H]1O` [ADP] registered a Ki of 83 ± 0.2 µM.
